Source: patent US9131691B2, “Use of amide compounds for preventing marine biofouling” (The Hong Kong University of Science and Technology, priority 2011, dated 2015)
Converted amounts (≈) assume the structure as drawn. Like-named read-outs stand apart in the source and are kept apart here.

Legend:
Assay type in all cases: in vivo
[1] = tested on: B. amphitrite cyprids; assay: whole plant or invertebrate; conditions: for EC50: Amphibalanus amphitrite, 48 h, read-out: EC50 (larval settlement); for LC50/EC50: B. amphitrite, ratio >10 regarded as non-toxic
Experimental: (§1) They were kept in sea water at room temperature in lab under light illumination to induce the release of nauplii larvae. These newly released nauplii were reared to the cyprid stage on a diet of Chaetoceros gracilis Schutt at 28° C. for about 3 days until they developed into cyprids, which were ready to settle. The cyprids were collected using a 120 μm mesh sieve. Each sample of the exacts was dissolved in a small amount of DMSO and then transferred into filtered seawater to make up the test solution with a known concentration. About fifteen (15±3) cyprids per well were incubated in the dark for 48 h in a 24-well plate filled with 1 ml testing solutions per well. The numbers of the settled and swimming larvae were counted under a dissecting microscope. Three replicates were run for each sample. […] The experiment was performed in quadruplicate.
as §1, with “Each compound” for “Each”, “sample” for “sample of the exacts”

[2] = in vivo; conditions: Balanus amphitrite (barnacle) cyprid larvae, in vivo, B. amphitrite cyprids, 48 h, concentration where 50% of larvae dead
Experimental: as §1
as §1, with “Each compound” for “Each”, “sample” for “sample of the exacts”

[3] = tested on: B. neritina larvae; assay: inhibition of larvae settlement of B. neritina; conditions: for LC50/EC50: B. neritina, ratio >10 regarded as non-toxic; for EC50: Bugula neritina, read-out: EC50 (larval settlement)
Experimental: (§2) Adult B. neritina colonies were placed in a 12 L tank filled with 8 L filtered seawater under a bright artificial light for 1 h to induce the release of their photo-tactic larvae that were able to shortly attach and metamorphose. The actively swimming larvae were collected and added to the test solutions contain different concentrations of samples in 24-well plates at about fifteen (15±3) larvae per well. They were then incubated in the dark at room temperature for 24 h before counting the number of attached and unattached larvae under a dissecting microscope. […] The experiment was performed in quadruplicate.

[4] = inhibition of larvae settlement of B. neritina; conditions: Bugula neritina (bryozoan) larvae, in vivo, B. neritina larvae, 24 h
Experimental: as §2

[5] = tested on: H. elegans larvae; assay: inhibition of larvae settlement of H. elegans; conditions: for LC50/EC50: H. elegans, ratio >10 regarded as non-toxic; for EC50: Hydroides elegans, read-out: EC50 (larval settlement)
Experimental: (§3) The four amide compounds were tested for their abilities to inhibit larvae settlement of the H. elegans, using an experimental model of inhibition of larvae settlement H. elegans (Zhang Y., Xiao K., Qian P. Y., et al. 2D gel-based multiplexed proteomic analysis during larval development and metamorphosis of the biofouling polychaete tubeworm Hydroides elegans. Journal of proteome research. 2010, 9(9), 4851-4860). Adults of H. elegans were collected from Yung Shue O, Hong Kong (22° 25′N, 114° 16′E). The H. elegans larvae were reared according to Qian and Pechenik (Bryan P. J., Qian P. Y., Kreider J. L.; Chia F. S. Induction of larval settlement and metamorphosis by pharmacological and conspecific associated compounds in the serpulid polychaete Hydroides elegans. Marine ecology progress series. 1997, 146: 81-90; Qiu, J. W.; Qian, P. Y. Combined effects of salinity, temperature and food on early development of the polychaete Hydroides elegans. Marine ecology progress series. 1997, 152: 79-88). Briefly, they were reared for 4 days until they reach the settlement-competent stage on a diet of chrysophyte Isochrysis galbana under an aerated condition and a 15 h light/9 h dark photoperied at 25° C. Because the attachment of H. elegans larvae requires to be induced by marine biofilm (Carpizo-Ituarte and Hadfield 1998), 24-well plates were suspended in laboratory tanks supplied with running seawater for 6 days until each well of every plate had accumulated sufficient biofilm. About fifteen (15±3) competent larvae were added to each biofilmed well of a plate containing 1.0 mL test solution containing samples at known concentrations. The 24-well plates were incubated at 28° C. for 48 h under a 15 h light/9 h dark photoperied. The percentage of larvae settlement and larvae mortality was determined by counting the settled, live individuals under a dissecting microscope. Three replicates were run for each sample. The EC50 was calculated as the concentration where 50% of the larval population was inhibited to settle as compared to the control, while LC50 was calculated as the concentration where 50% of the larval population was dead. The experiment was performed in quadruplicate. The experiment results of the inhibitory effect of the four Compounds 1-4 on larvae settlement of H. elegans were shown in FIGS. 3, 6, 9, and 12, respectively.

[6] = inhibition of larvae settlement of H. elegans; conditions: Hydroides elegans (polychaete tubeworm) larvae, in vivo, H. elegans larvae, 48 h
Experimental: as §3

[7] = B. amphitrite cyprids, concentration where 50% of larvae inhibited to settle vs control
[8] = other: immersion in test solution
[9] = 48 h, H. elegans larvae, biofilmed wells, 48 h

Structure (SMILES) | EC50 [1, 7] [µg/mL] | LC50/EC50 [1] | LC50 at 48 h [2, 8] [µg/mL] | EC50 (larval settlement) ([3]; B. neritina larvae, 24 h) [µg/mL] | LC50/EC50 [3] | LC50 at 24 h [4, 8] [µg/mL] | LC50/EC50 [5] | EC50 [5, 9] [µg/mL] | LC50 at 48 h [6, 8] [µg/mL] | LC50 at 48 h [2] [µg/mL] | EC50 ([3]; 24 h, B. neritina larvae, 24 h) [µg/mL] | LC50 at 24 h [4] [µg/mL] | LC50 at 48 h [6] [µg/mL] | EC50 [1] [µg/mL] | EC50 ([3]; 24 h) [µg/mL] | EC50 (larval settlement) ([5]; H. elegans larvae, biofilmed wells, 48 h) [µg/mL] | EC50 ([5]; 48 h) [µg/mL]
O=C(CCCCCC/C=C/c1ccc2c(c1)OCO2)N1CCCCC1 [Compound 1, 1-[1-oxo-9-(3′,4′-methylenedioxyphenyl)-8E-nonenyl]-piperine] | 1.1 ± 0.3 (≈ 3.2 µM) | >86.9 | > 100 | 0.7 ± 0.2 (≈ 2.04 µM) | >14.7 | > 10 | >49.5 | 1 ± 0.4 (≈ 2.91 µM) | > 50 | – | – | – | – | – | – | – | –
O=C(/C=C/C=C/c1ccc2c(c1)OCO2)N1CCCCC1 [Compound 2, 1-[1-oxo-5-(3′,4′-methylenedioxyphenyl)-2,4-pentadienoyl]-piperidine] | 1.4 ± 0.6 (≈ 4.91 µM) | >71.4 | – | – | >30.3 | – | >38.5 | 1.3 ± 0.8 (≈ 4.56 µM) | – | > 100 | 1.6 ± 0.7 (≈ 5.61 µM) | > 50 | > 50 | – | – | – | –
O=C(/C=C/C=C/CCc1ccc2c(c1)OCO2)N1CCCCC1 [Compound 3, 1-[1-oxo-7-(3′,4′-methylenedioxyphenyl)-2E,4E-heptadienyl]-piperine] | 4.2 ± 1.3 (≈ 13.4 µM) | >24.0 | > 100 | – | >11.7 | > 100 | >13.7 | 7.3 ± 1.6 (≈ 23.3 µM) | > 100 | – | 8.5 ± 2.1 (≈ 27.1 µM) | – | – | – | – | – | –
CC(C)CNC(=O)/C=C/C=C/CCCCCC/C=C/c1ccc2c(c1)OCO2 [Compound 4, (2E,4E,12E)-N-isobutyl-13-(3′,4′-methylenedioxyphenyl)-tridecatrienamide] | – | >12.1 | – | – | >17.6 | – | – | – | – | > 200 | – | > 100 | > 100 | 16.6 ± 2.9 (≈ 43.3 µM) | 5.7 ± 1.5 (≈ 14.9 µM) | >20.0 | > 20
